The source of these data is ChEMBL document CHEMBL1212941, “Eucapsitrione, an anti-Mycobacterium tuberculosis anthraquinone derivative from the cultured freshwater cyanobacterium Eucapsis sp” (J Nat Prod, 2010).

The subject of one experiment is Escherichia coli. Kind of experiment: Antibacterial activity against Escherichia coli at 55 uM by broth microdilution method. It counts as functional, organism-based.
For experiment [1], the system named is Mycolicibacterium smegmatis. Kind of experiment: Antimycobacterial activity against Mycobacterium smegmatis at 55 uM by broth microdilution method. The class given is functional, organism-based. Background: Dilution methods test growth across graded concentrations, often in twofold steps.
A further experiment has as its system Staphylococcus aureus. In words: Antibacterial activity against Staphylococcus aureus at 55 uM by broth microdilution method. The class given is functional, organism-based.
A further experiment has as its system Vero. Kind of experiment: Cytotoxicity against african green monkey Vero cells. The class given is cell-based. The following applies: Chlorocebus sabaeus.
Experiment [2] concerns Mycobacterium tuberculosis. Kind of experiment: Antimycobacterial activity against Mycobacterium tuberculosis H37Rv by microplate alamar blue assay. The class given is functional. (In general: Alamar Blue is a resazurin reagent that responds to reducing activity.)
Experiment [3] has as its system Mycobacterium tuberculosis. Kind of experiment: Antimycobacterial activity against Mycobacterium tuberculosis H37Rv by low oxygen recovery assay. The class given is functional.
For another experiment, the system named is Candida albicans. Kind of experiment: Antifungal activity against Candida albicans at 55 uM by broth microdilution method. The class given is functional, organism-based.

In brackets after ≈: the same amount, converted by molar mass. Activity calls are given as the source filed them. No cut-off for these calls is given here.

Usually IC50 stands for the concentration that gives 50% inhibition. What is called MIC is the lowest concentration that inhibits growth of the organism. Consider `O=c1c2cccc(O)c2c(=O)c2c(O)c3c(cc12)c(=O)c1c(O)cccc13` [EUCAPSITRIONE], for which the outcome (in the experiment with Escherichia coli; in experiment [1]; with Staphylococcus aureus; in the experiment with Candida albicans) was inactive. This compound also displayed a concentration for half-maximal inhibition (IC50) in the experiment with Vero of over 28 µM. Besides, the MIC in experiment [2] was 3.1 µM (≈ 1.11 µg/mL); in experiment [3], 6.4 µM (≈ 2.29 µg/mL).
